Experiment in all cases: DTP human tumour cell line panel, 48 h
Experiment [1] relates to SF-539 CNS.
The test system of experiment [2] is EKVX NSCLC.
Experiment [3] has as its system NCI-H522 lung.
Experiment [4] relates to CCRF-CEM leukemia.
Experiment [5] relates to CAKI-1 renal.
In experiment [6] the test system is UACC-257 melanoma.
Experiment [7] relates to SK-MEL-28 melanoma.
Experiment [8] deals with IGROV1 ovarian.
Experiment [9] relates to MOLT-4 leukemia.
In experiment [10] the test system is K-562 leukemia.

Values joined by “and” are separate entries in the source; they are usually repeats but may differ in a detail not shown here. Identical values can stand only once.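 Five compound concentrations were applied to cells in 96-well plates for 48 hours; endpoints were derived by simple linear interpolation of the resulting dose-response curve. Here, GI50 denotes the concentration required for 50% inhibition of growth. TGI: concentration producing complete growth inhibition.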

Turning to `Nc1c(C(=O)Nc2ccccn2)sc2nc3c(cc12)C(O)CCC3` (centres undefined), the GI50 (as a rule, the concentration giving 50% growth inhibition) is 1.47 µM in [1]; 3.29 µM in experiment [2]; 0.815 µM in [3]; 0.906 µM in [4]; 2.92 µM in experiment [5]; above 50 µM in [6]. In addition, the GI50 in [7] was above 50 µM; in [8] it was 3.27 µM; in experiment [9] it was 2.08 µM; in [10], 0.319 µM. For the same compound, the TGI (commonly the concentration at which net growth stops) in experiment [1] is above 50 µM; in experiment [2] it was above 50 µM; in experiment [3] it was 2.02 µM; in experiment [4], above 50 µM; in experiment [5], above 50 µM; in [6] it was above 50 µM. Besides, the TGI in experiment [7], in experiment [8], in experiment [9] and in experiment [10] was above 50 µM in each case.

On to `CS(=O)(=O)Nc1cc(-c2ccc3ncnc(Nc4ccc(F)c(Cl)c4)c3c2)cnc1Cl`, for which the GI50 is 0.431 µM and 0.541 µM in [1]; 0.34 µM and 0.352 µM in experiment [2]; 0.4 µM and 0.815 µM in [3]; 0.378 µM and 0.309 µM in experiment [4]; 0.455 µM and 0.326 µM in experiment [5]; 0.503 µM and 0.706 µM in experiment [6]. In addition, the concentration for 50% growth inhibition (GI50) in experiment [7] was 0.345 µM; in [8], 0.114 µM; in [9] it was 0.311 µM and 0.284 µM; in experiment [10], 1.71 µM. Besides, the TGI in experiment [1] was 2.52 µM and 3.33 µM; in [2], 3.19 µM and 2.61 µM; in experiment [3], 3.9 µM and 9.8 µM; in [4] it was 11.9 µM and 28.1 µM; in [5], 9.55 µM and 2.23 µM; in experiment [6] it was 7.55 µM and 10.4 µM. The TGI is 9.61 µM in experiment [7]; 0.495 µM in experiment [8]; 1.81 µM and 2.02 µM in experiment [9]; above 82.4 µM in [10].

Consider `COc1cccc(/C=C/c2nc3c(cnn3-c3ccccc3)c(=O)[nH]2)c1`, for which the GI50 in experiment [1] was above 70 µM; in experiment [2], 65.8 µM; in experiment [3], above 100 µM; in [4], above 100 µM; in experiment [5], above 45.6 µM; in experiment [6] it was above 100 µM. Besides, the results for the GI50 in [7], in experiment [8] and in experiment [9] were above 100 µM, 13 µM and above 100 µM, respectively. Moreover, the concentration for total growth inhibition (TGI) in experiment [1], in experiment [2], in [3], in experiment [4], in experiment [5] and in experiment [6] was above 100 µM in each case. The TGI in experiment [7], in experiment [8], in experiment [9] and in [10] was above 100 µM throughout.

With `OB(O)c1ccccc1C#Cc1ccccc1B(O)O`, the TGI in experiment [1] was 44.9 µM; in experiment [2], 54.2 µM; in experiment [3], 41.7 µM; in [4], above 100 µM; in experiment [5], 22.1 µM; in experiment [6] it was 17.3 µM. In addition, the TGI in experiment [7] was 99.3 µM; in experiment [8], 13.9 µM; in experiment [9] it was above 100 µM; in experiment [10], above 100 µM.

`O=C(NCCc1ccccc1)Nc1ccc2cc3ccc(NC(=O)NCCc4ccccc4)cc3nc2c1`: the GI50 in [1] is 1.33 µM; in experiment [2], 3.49 µM; in experiment [3], 0.326 µM; in experiment [4], 0.301 µM; in experiment [5] it was 4.65 µM; in [6], 1.86 µM. The GI50 in experiment [7] is 1.43 µM; in [8], 1.44 µM; in [9] it was 0.258 µM; in experiment [10] it was 0.392 µM. Besides, the TGI in experiment [1] was 2.7 µM; in experiment [2], 21.8 µM; in experiment [3], 1.5 µM; in experiment [4] it was 0.945 µM; in [5] it was above 100 µM; in [6], 4.07 µM. Also, the TGI in experiment [7] came to 2.8 µM; in [8] it was 3.97 µM; in experiment [9], 0.697 µM; in [10], 35.7 µM.

As to `O=[P+](O)c1ccccn1`, the TGI in experiment [1], in experiment [2], in experiment [3], in experiment [4], in [5] and in [6] was above 100 µM in each case. In addition, the TGI in experiment [7], in [8], in experiment [9] and in [10] was above 100 µM in each case.

As to `CCCOc1cc2ccccc2cc1C(=O)Nc1nc(NC)c2c(ccc3nccc32)[nH]1`, the GI50 in experiment [1] was 0.623 µM; in [2] it was 0.611 µM; in experiment [3], 0.0449 µM; in experiment [4], 0.311 µM; in experiment [5] it was 1.76 µM; in experiment [6], 1.21 µM. Further, the GI50 in experiment [7] was 1.14 µM; in experiment [8], 1.17 µM; in experiment [9], 0.496 µM; in experiment [10], 0.0883 µM. Moreover, the TGI in experiment [1] turned out to be 2.06 µM; in experiment [2], 2.04 µM; in experiment [3], 0.219 µM; in experiment [4], 1.04 µM; in [5], 3.82 µM; in experiment [6], 2.56 µM. The TGI turned out to be 2.43 µM in experiment [7], 2.71 µM in [8], 2.32 µM in [9] and 0.912 µM in experiment [10].

As to `Nc1ccccc1C#C/C=C\C#CC#C/C=C\C#Cc1ccccc1N`, the GI50 was 3.96 µM in [1]; 7.84 µM in experiment [2]; 3.93 µM in experiment [3]; 0.0892 µM in [4]; 2.74 µM in experiment [5]; 8.96 µM in [6]. The GI50 in experiment [7] was 14.6 µM; in experiment [8], 2.21 µM; in experiment [9], 1.01 µM; in experiment [10], 0.781 µM. The concentration for total growth inhibition (TGI) is 16.6 µM in [1]; 28.4 µM in experiment [2]; 16 µM in experiment [3]; 16 µM in experiment [4]; 11.8 µM in experiment [5]; 32.4 µM in [6]. The TGI in experiment [7] is 36.7 µM; in [8], 17.9 µM; in experiment [9] it was 18.4 µM; in experiment [10] it was above 100 µM.

(Values after PubChem BioAssay (NCI).)
